“Also recorded” adds a separate entry of the source.
What was measured:
[1] = tested on: IL-6; assay: qPCR of IL-1β-induced IL-6 expression in HEK-Blue IL-33/IL-1β cells; assay type: cell-based, human; parameters: key to qPCR IL-6 (heatmap grade of inhibition): 0: No effect; No effect 01234 Maximum inhibition/efficacy; No effect 01234 Maximum inhibition/efficacy; No effect 01234 Maximum inhibition/efficacy; 4: Maximum inhibition/efficacy; conditions: for qPCR IL-6 (heatmap grade of inhibition): HEK-Blue cells, peptide 10^-6 M or Kineret 1.0 mg/mL 30 min, then IL-1β 100 ng/mL 4 h (legend: overnight); for Suppression of IL-6 transcription: HEK blue cells, 10^-6 M pre-treatment, IL-1β stimulation
Procedure: HEK-Blue IL-33/IL-1β cells were purchased from InvivoGen (San Diego, CA) and used at passages under 15. HEK-Blue cells were cultured in DMEM growth medium supplemented with 10% serum, 50 U/mL penicillin, […] streptomycin, […] zeocin, and […] hygromycin. Cells were grown in regular conditions (37°C, 5% CO2). Cells were serum starved overnight and treated with 100 ng/mL IL-1β for 4 h. Cells were pre-incubated for 30 min with peptides 1, 5, or 6 (10^−6M) or Kineret (1.0 mg/mL) prior to the experiments to reach equilibrium (n = 4 each treatment). Cells were harvested and incubated for 5 min in RIBOzol (AMRESCO). RNA was extracted according to manufacturer's protocol and RNA concentration and integrity were measured with a NanoDrop 1,000 spectrophotometer. A total of 500 ng RNA was used to synthetize cDNA using iScript Reverse Transcription SuperMix (Bio-Rad, Hercules, CA). Quantitative gene expression analysis was performed on Stratagene MXPro3000 (Stratagene) with SYBR Green Master Mix (Bio-Rad). Gene expression levels were normalized to 18S universal primer (Ambion Life Technology, Burlington ON, Canada). Genes analyzed include IL1β, IL6, and PTGHS2 [Prostaglandin H synthetase 2 or cyclooxygenase-2 (COX-2)]. Data are representative of 3 experiments (each with n = 4 per treatment group).
Figure 8 The effects of peptides 1, 5, and 6 on the expression of pro-inflammatory genes. HEK-Blue cells were pre-treated with peptides 1, 5, and 6 as above and stimulated with IL-1β overnight. qPCR was performed on cell lysates using 18S rRNA as internal control. Graphs are sorted in columns by gene of interest (COX-2, IL-1β, or IL-6) and rows by peptide configuration [(3R) or (3S)]. Results are representative of an average of 3 independent experiments (each with n = 4 per treatment group) and are expressed as a fold-change of the non-stimulated control: ^*p < 0.05, ^**p < 0.01, ^***p < 0.001, ^****p < 0.0001 compared to group treated only with IL-1β. Treatment groups that are not labeled with asterisks are statistically non-significant compared to group treated only with IL-1β.

[2] = tested on: NF-κB; assay: NF-κB QUANTI-Blue assay (secreted alkaline phosphatase reporter) in HEK-Blue IL-33/IL-1β cells; assay type: cell-based; parameters: key to Nf-κB (heatmap grade of inhibition): 0: No effect; No effect 01234 Maximum inhibition/efficacy; No effect 01234 Maximum inhibition/efficacy; No effect 01234 Maximum inhibition/efficacy; 4: Maximum inhibition/efficacy; conditions: for Nf-κB (heatmap grade of inhibition): HEK-Blue cells, peptide 10^-6 M or Kineret 1.0 mg/mL 30 min, then IL-1β 100 ng/mL 4 h, QUANTI-Blue
Procedure: HEK-Blue IL-33/IL-1β cells (InvivoGen) were pretreated with peptides 1, 5, or 6 (10^−6M) or Kineret (1.0 mg/mL) for 30 min, followed by treatment with a constant concentration of IL-1β (100 ng/mL), and then incubated at 37°C for 4 h. Levels of secreted alkaline phosphatase in cell culture supernatant were determined using the QUANTI-Blue assay, according to the manufacturer's instructions (InvivoGen). Alkaline phosphatase activity was assessed by measuring the optical density (OD) at 620–655 nm with a micro plate reader (EnVision Multilabel reader; PerkinElmer, Waltham, MA). Data are representative of 3 experiments (each with n = 4 per treatment group).
Figure 6 The effects of peptides 1, 5, and 6 on IL-1-induced NF-κB signaling. NF-κB activation was quantified on HEK-blue cells using the QUANTI-blue assay, which spectroscopically detects secreted alkaline phosphatase, a reporter product from the transcription of the NF-κB gene. HEK-blue cells were pre-incubated with peptides 1, 5, and 6 or vehicle, then stimulated with IL-1β for 4 h. Data shown represents the average of 3 experiments, each with n = 4 per treatment group. ^****p < 0.0001 compared to group treated only with IL-1β. Treatment groups that are not labeled with asterisks are statistically non-significant compared to group treated only with IL-1β.

[3] = tested on: pregnant CD-1 mice; assay: LPS-induced preterm birth (PTB) model in mice; assay type: in vivo, mouse; parameters: key to In vivo PTB (heatmap grade of efficacy): 0: No effect; No effect 01234 Maximum inhibition/efficacy; No effect 01234 Maximum inhibition/efficacy; No effect 01234 Maximum inhibition/efficacy; 4: Maximum inhibition/efficacy; conditions: for In vivo PTB (heatmap grade of efficacy): LPS 10 μg i.p. at G16.5, peptide 2 mg/kg/day s.c. every 12 h; for Activity in delaying labor in the PTB model: LPS i.p. at G16.5, 2 mg/kg/day s.c.
Procedure: Timed-pregnant CD-1 mice at 16.5 days of gestation (G16.5) were anesthetized with 2% isoflurane and received an intraperitoneal injection of LPS (n = 4 per group, a single dose of 10 μg) (Nadeau-Vallée et al., [2015], and Kakinuma et al., [1997]). A dosage of 2 mg/kg/day of peptide 1, 5, or 6 or vehicle was injected subcutaneously in the neck, every 12 h until delivery. On G16.5, a dose of 1 mg/kg was injected 30 min before stimulation with LPS (to allow distribution of drugs to target tissues) and 1 mg/kg was injected 12 h after stimulation (n = 4 each treatment). Mice delivery was assessed every hour until term (G19–G19.5). A mouse is considered as delivering prematurely if the first pup is delivered earlier than G18.5.
Figure 9 The effects of peptides 1, 5, and 6 on prevention of PTB. (A) Schematic of the CD-1 mouse PTB model. In brief, pregnant dams on day 16.5 of gestation (G16.5) were subcutaneously pretreated with peptides 1, 5, and 6 or vehicle, followed by LPS, and observed for delivery of pups. A dam was considered as delivering preterm if at least one pup was delivered before G18.5. (B) The rates of PTB in dams treated with peptides 1, 5, and 6 are grouped into (3R)- (left) and (3S)- (right) derivatives; n = 4–5 dams per treatment group.

Row | Substance | qPCR IL-6 (heatmap grade of inhibition) [1] | Nf-κB (heatmap grade of inhibition) [2] | In vivo PTB (heatmap grade of efficacy) [3] | Activity in delaying labor in the PTB model [3] | Suppression of IL-6 transcription [1] | Inhibition of IL-1-induced NF-κB signaling ([2]; HEK-blue cells, peptide 10^-6 M or Kineret 1.0 mg/mL, IL-1β 4 h, QUANTI-blue)
1 | H-D-Arg-D-Tyr-(3R,4R)-Hgl-(S)-Val-D-Glu-D-Leu-D-Ala-NH2 [[(3R,4R)-Hgl^3-(S)-Val^4]-1] | 4 | 0 | 0 | – | – | –
2 | H-D-Arg-D-Tyr-(3R,4R)-Hgl-D-Val-D-Glu-D-Leu-D-Ala-NH2 [[(3R,4R)-Hgl^3]-1] | 4 | 0 | 0 | – | – | –
3 | H-D-Arg-D-Tyr-(3R,4S)-Hgl-(S)-Val-D-Glu-D-Leu-D-Ala-NH2 [[(3R,4S)-Hgl^3-(S)-Val^4]-1] | 2 | 0 | 2 | – | – | –
4 | H-D-Arg-D-Tyr-(3R,4S)-Hgl-D-Val-D-Glu-D-Leu-D-Ala-NH2 [[(3R,4S)-Hgl^3]-1] | 4 | 0 | 4 | best activity | – | –
5 | H-D-Arg-D-Tyr-(3S,4R)-Hgl-D-Val-D-Glu-D-Leu-D-Ala-NH2 [[(3S,4R)-Hgl^3]-1] | 4 | 0 | 4 | best activity | – | –
6 | H-D-Arg-D-Tyr-(R)-Agl-(S)-Val-D-Glu-D-Leu-D-Ala-NH2 [[(3R)-Agl^3-(S)-Val^4]-1] | 1 | 0 | 0 | – | ability to suppress the transcription of all three genes was lost | –
7 | H-D-Arg-D-Tyr-(R)-Agl-D-Val-D-Glu-D-Leu-D-Ala-NH2 [[(3R)-Agl^3]-1] | 3 | 0 | 4 | high potency; also recorded: best activity | – | –
8 | H-D-Arg-D-Tyr-(S)-Agl-(S)-Val-D-Glu-D-Leu-D-Ala-NH2 [[(3S)-Agl^3-(S)-Val^4]-1] | 1 | 0 | 0 | – | ability to suppress the transcription of all three genes was lost | –
9 | H-D-Arg-D-Tyr-(S)-Agl-D-Val-D-Glu-D-Leu-D-Ala-NH2 [[(3S)-Agl^3]-1] | 2 | 0 | 4 | high potency; also recorded: best activity | – | –
10 | H-D-Arg-D-Tyr-D-Thr-D-Val-D-Glu-D-Leu-D-Ala-NH2 [Peptide 1] | 4 | 0 | 4 | – | strong suppression of transcription of all three genes | –
11 | Kineret: FDA-approved recombinant IL-1 receptor antagonist | 4 | 4 | 0 | – | – | inhibited NF-κB
